Results reported in PubChem BioAssay AID1963965 (Molecular Pharmacology Branch, DTP, NCI, 2024).
pIC50: −log10 of the molar value. Values joined by “and” are separate entries in the source; they are usually repeats but may differ in a detail not shown here. Equal values may be shown once.

Test system: 996289-038-R-J1-PDC spheroid viability
Experiment: Anticancer human tumor 996289-038-R-J1-PDC patient-derived colon adenocarcinoma cell line growth inhibition [PI3K]
Conditions: spheroids with HUVEC and MSC; for viability, T/C: stronger effect = lower value; active = viability on the fitted dose curve at most 10% of control; inactive = the rest
How it was run: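 Multi-cell spheroids combine tumor cells with HUVEC and human MSCs, treated with targeted agents alone or with inavolisib, alpelisib, duvelisib or copanlisib. Concentrations fall in half-log steps from at or near clinical Cmax, or from 10 microM where Cmax is unknown; viability read-out.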

[1] = curve of first compound, second compound 0.0316 µM
[2] = curve of first compound, second compound 0.1 µM
[3] = curve of first compound, second compound 0.316 µM
[4] = curve of first compound, second compound 1 µM
[5] = curve of first compound, second compound 3.16 µM
[6] = curve of first compound, second compound 10 µM
[7] = second compound 0.0316 µM, first compound 0.0316 µM
[8] = second compound 0.0316 µM, first compound 0.1 µM
[9] = second compound 0.0316 µM, first compound 0.316 µM
[10] = second compound 0.0316 µM, first compound 1 µM
[11] = second compound 0.0316 µM, first compound 3.16 µM
[12] = second compound 0.0316 µM, first compound 10 µM
[13] = second compound 0.1 µM, first compound 0.0316 µM
[14] = second compound 0.1 µM, first compound 0.1 µM
[15] = second compound 0.1 µM, first compound 0.316 µM
[16] = second compound 0.1 µM, first compound 1 µM
[17] = second compound 0.1 µM, first compound 3.16 µM
[18] = second compound 0.1 µM, first compound 10 µM
[19] = second compound 0.316 µM, first compound 0.0316 µM
[20] = second compound 0.316 µM, first compound 0.1 µM
[21] = second compound 0.316 µM, first compound 0.316 µM
[22] = second compound 0.316 µM, first compound 1 µM
[23] = second compound 0.316 µM, first compound 3.16 µM
[24] = second compound 0.316 µM, first compound 10 µM
[25] = second compound 1 µM, first compound 0.0316 µM
[26] = second compound 1 µM, first compound 0.1 µM
[27] = second compound 1 µM, first compound 0.316 µM
[28] = second compound 1 µM, first compound 1 µM
[29] = second compound 1 µM, first compound 3.16 µM
[30] = second compound 1 µM, first compound 10 µM
[31] = second compound 3.16 µM, first compound 0.0316 µM
[32] = second compound 3.16 µM, first compound 0.1 µM
[33] = second compound 3.16 µM, first compound 0.316 µM
[34] = second compound 3.16 µM, first compound 1 µM
[35] = second compound 3.16 µM, first compound 3.16 µM
[36] = second compound 3.16 µM, first compound 10 µM
[37] = second compound 10 µM, first compound 0.0316 µM
[38] = second compound 10 µM, first compound 0.1 µM
[39] = second compound 10 µM, first compound 0.316 µM
[40] = second compound 10 µM, first compound 1 µM
[41] = second compound 10 µM, first compound 3.16 µM
[42] = second compound 10 µM, first compound 10 µM
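Note: spheroids exposed to compounds for seven days before viability read.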
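Throughout, for viability, T/C: luminescence used as a proxy for viable cell amount; percent viability relative to DMSO vehicle control as 100%.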

Cn1nccc1Nc1nccc(-c2ccn(C(CO)c3ccc(Cl)c(F)c3)c(=O)c2)n1 (configuration not stated) + CC(Nc1ncnc2nc[nH]c12)c1cc2cccc(Cl)c2c(=O)n1-c1ccccc1
5.06: pIC50 [4]
< 5.00: pIC50 [1] | pIC50 [2] | pIC50 [3] | pIC50 [5]
inactive: viability, T/C [7] 86.6% | viability, T/C [8] 97.5% | viability, T/C [9] 95.5% | viability, T/C [10] 90.1% | viability, T/C [11] 84.6% | viability, T/C [12] 61.5% | viability, T/C [13] 108% | viability, T/C [14] 89.4% | viability, T/C [15] 120% | viability, T/C [16] 92.8% | viability, T/C [17] 81.7% | viability, T/C [18] 53.1% | viability, T/C [19] 105% | viability, T/C [20] 90.8% | viability, T/C [21] 105% | viability, T/C [22] 93.3% | viability, T/C [23] 79.6% | viability, T/C [24] 55.6% | viability, T/C [25] 91.7% | viability, T/C [26] 101% | viability, T/C [27] 87.9% | viability, T/C [28] 94.4% | viability, T/C [29] 76.9% | viability, T/C [30] 46.1% | viability, T/C [31] 88.1% | viability, T/C [32] 87.2% | viability, T/C [33] 99.7% | viability, T/C [34] 86.1% | viability, T/C [35] 70.3% | viability, T/C [36] 57.1% | viability, T/C [37] 82.7% | viability, T/C [38] 88.5% | viability, T/C [39] 91.1% | viability, T/C [40] 81.7% | viability, T/C [41] 70.8% | viability, T/C [42] 43.3%
5.12: pIC50 [6]

CC(Cn1ccc(-c2ccc(C#N)c(Cl)c2)n1)NC(=O)c1cc(C(C)O)[nH]n1 (configuration not stated) + Cc1nc(NC(=O)N2CCCC2C(N)=O)sc1-c1ccnc(C(C)(C)C(F)(F)F)c1
> 7.50: pIC50 [6]
< 5.00: pIC50 [1] | pIC50 [2] | pIC50 [3] | pIC50 [4] | pIC50 [5]
inactive: viability, T/C [7] 84% | viability, T/C [8] 86.7% | viability, T/C [9] 95.2% | viability, T/C [10] 109% | viability, T/C [11] 98.9% | viability, T/C [12] 91.8% | viability, T/C [13] 96.6% | viability, T/C [14] 89.7% | viability, T/C [15] 97.8% | viability, T/C [16] 94.4% | viability, T/C [17] 92.4% | viability, T/C [18] 92.3% | viability, T/C [19] 95.8% | viability, T/C [20] 85.3% | viability, T/C [21] 85% | viability, T/C [22] 77.3% | viability, T/C [23] 78.3% | viability, T/C [24] 85.3% | viability, T/C [25] 68.8% | viability, T/C [26] 82.4% | viability, T/C [27] 80.9% | viability, T/C [28] 89.9% | viability, T/C [29] 77% | viability, T/C [30] 69.3% | viability, T/C [31] 58.5% | viability, T/C [32] 55.8% | viability, T/C [33] 66.6% | viability, T/C [34] 66.7% | viability, T/C [35] 72.7% | viability, T/C [36] 50.9% | viability, T/C [37] 49% | viability, T/C [38] 43.1% | viability, T/C [39] 48.9% | viability, T/C [40] 42.3% | viability, T/C [41] 43.1% | viability, T/C [42] 46.4%

CCCS(=O)(=O)Nc1ccc(F)c(C(=O)c2c[nH]c3ncc(-c4ccc(Cl)cc4)cc23)c1F
inactive: viability, T/C (compound 0.0316 µM) 106% [middle of 4 runs] | viability, T/C (compound 0.1 µM) 93.7% [middle of 4 runs] | viability, T/C (compound 0.316 µM) 100% [middle of 4 runs] | viability, T/C (compound 1 µM) 94.5% [middle of 4 runs] | viability, T/C (compound 3.16 µM) 96.8% [middle of 4 runs] | viability, T/C (compound 10 µM) 23.3% [middle of 4 runs]
6.53 µM [middle of 4 runs]: IC50 (curve of compound)

CC(C)NCC(C(=O)N1CCN(c2ncnc3c2C(C)CC3O)CC1)c1ccc(Cl)cc1 (configuration not stated) + Cc1nc(NC(=O)N2CCCC2C(N)=O)sc1-c1ccnc(C(C)(C)C(F)(F)F)c1
> 7.50: pIC50 [6]
inactive: viability, T/C [7] 82.8% | viability, T/C [8] 92.3% | viability, T/C [9] 85.9% | viability, T/C [10] 97.7% | viability, T/C [11] 85.2% | viability, T/C [12] 66.7% | viability, T/C [13] 82.4% | viability, T/C [14] 81% | viability, T/C [15] 97.9% | viability, T/C [16] 82.1% | viability, T/C [17] 82.1% | viability, T/C [18] 66.2% | viability, T/C [19] 76.5% | viability, T/C [20] 88.8% | viability, T/C [21] 81.7% | viability, T/C [22] 69.2% | viability, T/C [23] 78.4% | viability, T/C [24] 54.5% | viability, T/C [25] 68.7% | viability, T/C [26] 60.7% | viability, T/C [27] 67.8% | viability, T/C [28] 69.5% | viability, T/C [29] 59.5% | viability, T/C [30] 51% | viability, T/C [31] 61% | viability, T/C [32] 60% | viability, T/C [33] 60.7% | viability, T/C [34] 59.1% | viability, T/C [35] 57% | viability, T/C [36] 40.1% | viability, T/C [37] 45.7% | viability, T/C [38] 35.9% | viability, T/C [39] 43.5% | viability, T/C [40] 45.9% | viability, T/C [41] 34.3% | viability, T/C [42] 28.2%
5.30: pIC50 [5]
< 5.00: pIC50 [1] | pIC50 [2] | pIC50 [3] | pIC50 [4]

Cn1ncc(Cl)c1-c1cc(C(=O)NC(CN)Cc2cccc(F)c2)sc1Cl (configuration not stated)
< 5.00 and 5.01: pIC50 (curve of compound)
inactive: viability, T/C (compound 0.0316 µM) 90% [middle of 4 runs] | viability, T/C (compound 0.1 µM) 90.5% [middle of 4 runs] | viability, T/C (compound 0.316 µM) 84% [middle of 4 runs] | viability, T/C (compound 1 µM) 79.9% [middle of 4 runs] | viability, T/C (compound 3.16 µM) 75.6% [middle of 4 runs] | viability, T/C (compound 10 µM) 52.2% [middle of 4 runs]

CC(C)NCC(C(=O)N1CCN(c2ncnc3c2C(C)CC3O)CC1)c1ccc(Cl)cc1 (configuration not stated) + CC(Nc1ncnc2nc[nH]c12)c1cc2cccc(Cl)c2c(=O)n1-c1ccccc1
inactive: viability, T/C [7] 86.1% | viability, T/C [8] 80.3% | viability, T/C [9] 100% | viability, T/C [10] 94.1% | viability, T/C [11] 87.4% | viability, T/C [12] 75.1% | viability, T/C [13] 96.5% | viability, T/C [14] 96.8% | viability, T/C [15] 89.9% | viability, T/C [16] 94.7% | viability, T/C [17] 87.1% | viability, T/C [18] 69.4% | viability, T/C [19] 94.9% | viability, T/C [20] 93.8% | viability, T/C [21] 95.2% | viability, T/C [22] 90% | viability, T/C [23] 92.2% | viability, T/C [24] 72.3% | viability, T/C [25] 86.4% | viability, T/C [26] 92.3% | viability, T/C [27] 90.8% | viability, T/C [28] 77.8% | viability, T/C [29] 101% | viability, T/C [30] 74.9% | viability, T/C [31] 88.1% | viability, T/C [32] 85% | viability, T/C [33] 85.4% | viability, T/C [34] 94.7% | viability, T/C [35] 94.9% | viability, T/C [36] 68.6% | viability, T/C [37] 88.8% | viability, T/C [38] 78.7% | viability, T/C [39] 85.5% | viability, T/C [40] 84.2% | viability, T/C [41] 101% | viability, T/C [42] 56.2%
< 5.00: pIC50 [1] | pIC50 [2] | pIC50 [3] | pIC50 [4] | pIC50 [5] | pIC50 [6]
